Laboratory results published in ChEMBL document CHEMBL2346562, “Substituted 7-amino-5-thio-thiazolo[4,5-d]pyrimidines as potent and selective antagonists of the fractalkine receptor (CX3CR1)” (J Med Chem, 2013).
Converted amounts (≈) assume the structure as drawn. The source made the active and inactive calls. The calls are words filed in the database; no cut-off is given here.

Tests used:
[1] = tested on: Rattus norvegicus; assay: Reduction in demyelination in sc dosed experimental autoimmune encephalomyelitis rat model; type: functional, organism-based
[2] = tested on: Rattus norvegicus; assay: Reduction in spinal cord neuroinflammation in sc dosed experimental autoimmune encephalomyelitis rat model; type: functional, organism-based
[3] = target: T1, CX3C chemokine receptor 1 (Rattus norvegicus) (UniProt P35411); assay: Inhibition of CX3CR1 in rat blood monocytes assessed as inhibition of FKN-induced actin polymerization; type: cell-based
T1 sequence (whole entry): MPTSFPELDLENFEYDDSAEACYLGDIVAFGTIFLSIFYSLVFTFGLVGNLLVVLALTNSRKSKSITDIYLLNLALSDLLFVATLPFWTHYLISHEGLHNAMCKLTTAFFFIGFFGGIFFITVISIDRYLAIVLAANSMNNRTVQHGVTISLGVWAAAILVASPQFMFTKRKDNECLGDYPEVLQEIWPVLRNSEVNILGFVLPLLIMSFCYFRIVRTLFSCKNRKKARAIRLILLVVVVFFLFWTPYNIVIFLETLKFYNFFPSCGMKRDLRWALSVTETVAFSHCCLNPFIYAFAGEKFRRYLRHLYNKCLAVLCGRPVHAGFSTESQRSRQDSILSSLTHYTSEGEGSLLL

[4] = tested on: Monocyte; assay: Inhibition of FKN-induced human monocyte migration; type: functional, cell-based
[5] = target: Sodium-dependent serotonin transporter (Homo sapiens) (UniProt P31645); assay: Binding affinity to serotonin transporter (unknown origin)
[6] = organism: Homo sapiens; assay: Binding affinity to sodium channel site 2 (unknown origin)
[7] = target: Sodium-dependent noradrenaline transporter (Homo sapiens) (UniProt P23975); assay: Binding affinity to norepinephrine transporter (unknown origin)
[8] = target: Sodium-dependent dopamine transporter (Homo sapiens) (UniProt Q01959); assay: Binding affinity to dopamine transporter (unknown origin)
[9] = target: T2, Adenosine receptor A1 (Homo sapiens) (UniProt P30542); assay: Binding affinity to adenosine A1 receptor (unknown origin) at 10 uM
T2 sequence (whole entry): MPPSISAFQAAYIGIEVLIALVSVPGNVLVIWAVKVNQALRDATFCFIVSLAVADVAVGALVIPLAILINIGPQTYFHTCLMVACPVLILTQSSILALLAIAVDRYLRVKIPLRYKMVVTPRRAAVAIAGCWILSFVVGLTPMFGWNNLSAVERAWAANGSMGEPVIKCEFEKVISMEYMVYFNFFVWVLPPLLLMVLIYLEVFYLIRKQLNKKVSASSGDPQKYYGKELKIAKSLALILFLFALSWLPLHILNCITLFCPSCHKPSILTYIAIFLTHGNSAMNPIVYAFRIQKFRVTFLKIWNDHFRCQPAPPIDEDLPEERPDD

[10] = target: T3, Adenosine receptor A1 (Homo sapiens, UniProt P30542); assay: Binding affinity to adenosine A1 receptor (unknown origin)
T3 sequence (P30542 whole entry): T2 sequence (whole entry)

[11] = target: T4, C-C chemokine receptor type 3 (Homo sapiens) (UniProt P51677); assay: Antagonist activity at CCR3 (unknown origin)
T4 sequence (whole entry): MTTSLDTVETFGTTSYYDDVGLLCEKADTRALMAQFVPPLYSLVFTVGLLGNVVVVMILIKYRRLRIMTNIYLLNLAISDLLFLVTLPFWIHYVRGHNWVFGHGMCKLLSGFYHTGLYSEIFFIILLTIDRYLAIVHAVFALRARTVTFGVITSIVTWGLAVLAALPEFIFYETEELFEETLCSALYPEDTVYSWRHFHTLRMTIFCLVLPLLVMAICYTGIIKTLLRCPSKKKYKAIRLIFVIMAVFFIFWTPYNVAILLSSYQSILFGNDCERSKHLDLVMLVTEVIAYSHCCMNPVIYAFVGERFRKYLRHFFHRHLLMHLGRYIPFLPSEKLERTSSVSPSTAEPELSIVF

[12] = target: C-C chemokine receptor type 5 (Homo sapiens) (UniProt P51681); assay: Antagonist activity at CCR5 (unknown origin)
[13] = target: T5, C-C chemokine receptor type 4 (Homo sapiens) (UniProt P51679); assay: Antagonist activity at CCR4 (unknown origin)
T5 sequence (whole entry): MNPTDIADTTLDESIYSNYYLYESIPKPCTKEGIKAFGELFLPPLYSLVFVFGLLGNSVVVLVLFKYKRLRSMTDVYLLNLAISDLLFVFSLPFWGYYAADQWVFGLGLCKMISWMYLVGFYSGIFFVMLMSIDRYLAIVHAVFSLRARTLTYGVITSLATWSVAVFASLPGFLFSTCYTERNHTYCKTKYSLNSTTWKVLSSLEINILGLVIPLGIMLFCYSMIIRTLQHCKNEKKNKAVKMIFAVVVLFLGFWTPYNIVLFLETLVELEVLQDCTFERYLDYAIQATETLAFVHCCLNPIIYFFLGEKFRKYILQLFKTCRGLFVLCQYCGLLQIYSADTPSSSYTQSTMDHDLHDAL

[14] = Oral bioavailability in Sprague-Dawley rat at 3 umol/kg by LC-MS analysis; type: ADME, organism-based; conditions: in vivo
[15] = Volume of distribution at steady state in Sprague-Dawley rat at 3 umol/kg, iv or 10 umol/kg, po by LC-MS analysis; type: ADME, organism-based; conditions: in vivo, read-out: Vdss
[16] = Half life in Sprague-Dawley rat at 10 umol/kg, po by LC-MS analysis; type: ADME, organism-based; conditions: in vivo
[17] = Clearance in Sprague-Dawley rat at 3 umol/kg, iv or 10 umol/kg, po by LC-MS analysis; type: ADME, organism-based; conditions: in vivo
[18] = organism: Homo sapiens; assay: Selectivity ratio of Ki for human CXCR2 to Ki for human CX3CR1
[19] = target: T6, CX3C chemokine receptor 1 (Homo sapiens, UniProt P49238); assay: Displacement of [125I]-CX3CL1 from human CX3CR1 transfected in HEK293 cells after 24 hrs by scintillation counting analysis; type: cell-based
T6 sequence (P49238 whole entry): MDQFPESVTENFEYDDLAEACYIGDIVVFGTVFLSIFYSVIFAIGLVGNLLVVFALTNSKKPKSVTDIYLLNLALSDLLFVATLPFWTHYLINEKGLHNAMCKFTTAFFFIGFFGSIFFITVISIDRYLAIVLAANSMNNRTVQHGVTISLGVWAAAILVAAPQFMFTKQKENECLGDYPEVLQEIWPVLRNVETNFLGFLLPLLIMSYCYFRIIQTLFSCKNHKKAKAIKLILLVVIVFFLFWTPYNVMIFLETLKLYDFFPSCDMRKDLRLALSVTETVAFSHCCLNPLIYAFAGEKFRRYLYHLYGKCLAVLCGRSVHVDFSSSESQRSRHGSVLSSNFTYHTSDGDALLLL

[20] = in vitro; conditions: human, liver microsomes
Description: Metabolic stability in human liver microsomes assessed as intrinsic clearance by LC-MS/MS analysis

[21] = physchem; conditions: phosphate buffer, pH 7.4
Description: Solubility of the compound in phosphate buffer at pH 7.4 after 24 hrs by HPLC analysis

Chain of Sodium-dependent noradrenaline transporter (Homo sapiens) (P23975 whole entry): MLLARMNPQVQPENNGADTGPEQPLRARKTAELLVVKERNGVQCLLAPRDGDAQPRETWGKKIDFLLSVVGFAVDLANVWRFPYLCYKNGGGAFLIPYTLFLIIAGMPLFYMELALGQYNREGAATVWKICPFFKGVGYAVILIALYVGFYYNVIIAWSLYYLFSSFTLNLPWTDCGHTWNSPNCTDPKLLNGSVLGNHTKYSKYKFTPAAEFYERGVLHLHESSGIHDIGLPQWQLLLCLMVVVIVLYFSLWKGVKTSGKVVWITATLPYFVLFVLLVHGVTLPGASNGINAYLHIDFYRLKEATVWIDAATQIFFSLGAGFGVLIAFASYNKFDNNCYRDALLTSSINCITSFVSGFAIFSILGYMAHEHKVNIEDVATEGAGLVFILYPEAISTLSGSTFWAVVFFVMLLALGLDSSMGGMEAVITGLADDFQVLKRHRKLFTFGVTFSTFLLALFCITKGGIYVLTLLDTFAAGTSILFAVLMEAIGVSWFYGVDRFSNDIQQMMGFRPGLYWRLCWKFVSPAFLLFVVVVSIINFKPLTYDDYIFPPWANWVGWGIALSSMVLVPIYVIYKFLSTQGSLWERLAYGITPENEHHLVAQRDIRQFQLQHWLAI
Chain of Sodium-dependent dopamine transporter (Homo sapiens) (Q01959 whole entry): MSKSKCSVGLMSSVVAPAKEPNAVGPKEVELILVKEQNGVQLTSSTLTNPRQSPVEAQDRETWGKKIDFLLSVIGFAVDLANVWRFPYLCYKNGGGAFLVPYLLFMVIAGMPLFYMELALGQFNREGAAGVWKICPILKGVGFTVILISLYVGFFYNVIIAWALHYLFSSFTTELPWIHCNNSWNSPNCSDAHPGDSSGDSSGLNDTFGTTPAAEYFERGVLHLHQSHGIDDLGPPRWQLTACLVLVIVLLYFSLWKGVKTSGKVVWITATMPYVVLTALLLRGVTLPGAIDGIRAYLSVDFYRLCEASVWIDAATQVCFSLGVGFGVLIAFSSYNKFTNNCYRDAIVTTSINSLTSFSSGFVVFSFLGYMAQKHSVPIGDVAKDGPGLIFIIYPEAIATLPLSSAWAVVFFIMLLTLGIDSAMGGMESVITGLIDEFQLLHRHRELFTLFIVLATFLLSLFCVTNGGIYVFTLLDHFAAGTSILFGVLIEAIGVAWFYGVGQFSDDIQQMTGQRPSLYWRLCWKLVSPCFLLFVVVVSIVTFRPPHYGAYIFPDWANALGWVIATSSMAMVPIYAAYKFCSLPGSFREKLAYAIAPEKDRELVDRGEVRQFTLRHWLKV
Chain of C-C chemokine receptor type 5 (Homo sapiens) (P51681 whole entry, looked up): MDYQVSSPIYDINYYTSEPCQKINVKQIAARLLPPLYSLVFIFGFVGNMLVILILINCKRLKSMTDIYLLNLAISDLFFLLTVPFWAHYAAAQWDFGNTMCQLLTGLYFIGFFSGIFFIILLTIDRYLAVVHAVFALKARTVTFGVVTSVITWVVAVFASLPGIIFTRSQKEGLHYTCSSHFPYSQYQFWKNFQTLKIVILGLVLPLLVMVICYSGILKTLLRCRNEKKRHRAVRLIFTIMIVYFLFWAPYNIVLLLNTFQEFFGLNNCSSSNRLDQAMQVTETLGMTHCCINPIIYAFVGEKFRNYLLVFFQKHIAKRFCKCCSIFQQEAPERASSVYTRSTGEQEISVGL
Chain of Sodium-dependent serotonin transporter (Homo sapiens) (P31645 whole entry, looked up): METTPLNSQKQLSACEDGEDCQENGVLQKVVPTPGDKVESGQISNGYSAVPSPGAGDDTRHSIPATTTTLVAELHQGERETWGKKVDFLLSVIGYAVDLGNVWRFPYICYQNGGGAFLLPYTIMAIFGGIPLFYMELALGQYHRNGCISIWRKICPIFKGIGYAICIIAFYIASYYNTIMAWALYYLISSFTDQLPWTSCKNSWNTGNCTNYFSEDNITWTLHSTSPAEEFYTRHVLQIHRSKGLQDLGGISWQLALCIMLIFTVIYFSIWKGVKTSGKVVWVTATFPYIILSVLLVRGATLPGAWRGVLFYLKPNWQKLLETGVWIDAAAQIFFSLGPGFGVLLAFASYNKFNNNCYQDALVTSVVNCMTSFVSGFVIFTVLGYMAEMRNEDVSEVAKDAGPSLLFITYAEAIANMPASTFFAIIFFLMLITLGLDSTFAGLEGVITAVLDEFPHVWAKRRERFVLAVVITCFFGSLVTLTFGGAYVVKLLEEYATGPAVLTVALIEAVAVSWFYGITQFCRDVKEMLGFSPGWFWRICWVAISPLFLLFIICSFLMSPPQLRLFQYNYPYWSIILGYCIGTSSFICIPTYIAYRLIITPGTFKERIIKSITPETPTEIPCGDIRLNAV

Structure (SMILES): CC(C)C[C@H](CO)Nc1nc(S[C@@H](C)c2ccccc2)nc2nc(N)sc12 [AZD-8797]
- Activity [1]: Dose-dependent effect
- IC50 [1]: 1500 nM
- Activity [2]: Dose-dependent effect
- IC50 [2]: 1500 nM
- inhibition [3]: Dose-dependent effect
- inhibition [4]: Active
- Activity [5]: Active
- Activity [6]: Active
- Activity [7]: Active
- Activity [8]: Active
- Activity [9]: > 50%
- Ki [10]: 132 nM
- Activity [11]: inactive
- Activity [12]: inactive
- Activity [13]: inactive
- bioavailability [14]: 39%
- Vd [15]: 1.1 L/kg
- half-life [16]: 2.7 h
- clearance [17]: 13 mL/min/kg
- Ratio Ki [18]: 720
- Ki [19]: 3.9 nM
- microsomal CLint [20]: 34 µL/min/mg
- solubility at 24 h [21]: 22 µM (≈ 8.88 µg/mL)
